Laboratory results published in US20220090124A1, “HUMANIZED VIPR2 COPY NUMBER VARIANT TRANSGENIC MOUSE MODEL FOR ANTIPSYCHOTIC DRUG AND GENE THERAPY DISCOVERY FOR SCHIZOPHRENIA” (Board of Supervisors of Louisiana State University and …, priority 2019, published 2022).

Legend:
[1] = target: T1, hPAC1 (Homo sapiens, UniProt P41586); settings: selectivity; cited from earlier work
T1 sequence (P41586 21-468): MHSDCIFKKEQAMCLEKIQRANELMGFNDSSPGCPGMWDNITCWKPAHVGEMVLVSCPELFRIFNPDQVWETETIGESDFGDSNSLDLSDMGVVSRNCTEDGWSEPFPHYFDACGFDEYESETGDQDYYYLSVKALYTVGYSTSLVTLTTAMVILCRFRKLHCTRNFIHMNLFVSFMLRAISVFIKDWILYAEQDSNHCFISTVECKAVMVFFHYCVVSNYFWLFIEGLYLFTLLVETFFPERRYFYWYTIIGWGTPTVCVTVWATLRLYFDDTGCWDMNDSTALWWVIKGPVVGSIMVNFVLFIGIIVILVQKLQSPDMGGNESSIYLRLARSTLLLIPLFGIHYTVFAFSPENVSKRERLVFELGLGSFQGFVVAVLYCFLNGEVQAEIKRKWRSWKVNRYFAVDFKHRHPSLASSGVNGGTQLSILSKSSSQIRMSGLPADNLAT

[2] = target: T2, mouse Vipr2 receptor (Mus musculus, UniProt P41588); settings: species specificity; cited from earlier work
T2 sequence (P41588 23-437): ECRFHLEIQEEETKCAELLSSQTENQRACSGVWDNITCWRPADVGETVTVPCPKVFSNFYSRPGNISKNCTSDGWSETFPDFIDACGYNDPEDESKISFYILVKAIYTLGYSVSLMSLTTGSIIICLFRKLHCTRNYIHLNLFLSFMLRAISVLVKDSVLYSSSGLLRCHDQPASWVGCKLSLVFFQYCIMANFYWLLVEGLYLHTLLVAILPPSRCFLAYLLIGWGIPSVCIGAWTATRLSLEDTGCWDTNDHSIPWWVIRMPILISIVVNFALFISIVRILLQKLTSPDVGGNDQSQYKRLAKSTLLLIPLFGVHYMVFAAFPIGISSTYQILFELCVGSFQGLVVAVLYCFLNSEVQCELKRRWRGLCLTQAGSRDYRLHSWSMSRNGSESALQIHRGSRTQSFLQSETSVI

[3] = target: T3, human VIPR2 receptor (Homo sapiens, UniProt P41587); experiment: receptor block and downstream signaling in cell line expressing the human VIPR2 receptor; type: cell-based; settings: cell line expressing the human VIPR2 receptor (cell line of VIPR2 CNV)
T3 construct: expressed in transfected cells; host or cells: cell line of VPIR2 CNV (not further described)
T3 sequence (P41587 24-438): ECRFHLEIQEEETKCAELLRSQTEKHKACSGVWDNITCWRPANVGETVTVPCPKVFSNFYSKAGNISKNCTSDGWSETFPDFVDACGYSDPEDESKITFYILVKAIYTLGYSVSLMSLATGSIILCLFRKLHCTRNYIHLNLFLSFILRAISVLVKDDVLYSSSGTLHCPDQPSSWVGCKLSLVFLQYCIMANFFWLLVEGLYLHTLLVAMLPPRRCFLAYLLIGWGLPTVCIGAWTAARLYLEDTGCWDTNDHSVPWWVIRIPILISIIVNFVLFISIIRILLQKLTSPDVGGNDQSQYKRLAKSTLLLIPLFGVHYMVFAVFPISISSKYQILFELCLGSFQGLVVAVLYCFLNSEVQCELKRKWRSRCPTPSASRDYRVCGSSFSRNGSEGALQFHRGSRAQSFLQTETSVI
Text: Turning finally to FIG. 57, a small molecule VIPR2 antagonist, (2R,4S)-2-benzyl-4-hydroxy-N-((1S,2R)-2-hydroxy-2,3-dihydro-1H-inden-1-yl)-5-(4-nitrophenylsulfonamido) pentanamide, is shown. Another object of the present invention is to use the VIRP2 BAC Schizophrenia mouse model to identify VIPR2 receptor antagonist as an antipsychotic drug targeting cognitive and social deficits, or as disease-modifying therapy to prevent or slow/stop disease progression. Currently, the majority of VIPR2 agonist or antagonist are peptides. However, two properties of the peptide hormone are problematic from the perspective of therapeutic applications. First, they have a short half-life as a result of its rapid proteolysis. Second, most of these peptides are not specific and activate three broadly distributed receptors, VIPR1, VIPR2, and PAC1. A high-throughput screen on human VPAC2 receptor using a cell-based cAMP assay has identified a single confirmed antagonist hit from a 1.67 million-compound collection. This compound is the first specific small molecule antagonist for human VIPR2 receptor. The full name of the compound is (2R,4S)-2-benzyl-4-hydroxy-N-((1S,2R)-2-hydroxy-2,3-dihydro-1H-inden-1-yl)-5-(4-nitrophenylsulfonamido) pentanamide (FIG. 57). […] The inventors experimented with this hVIPR2 antagonist in the cell line of VPIR2 CNV. […]

[4] = target: T4, hVPAC1 (Homo sapiens, UniProt P32241); settings: selectivity; cited from earlier work
T4 sequence (P32241 31-457): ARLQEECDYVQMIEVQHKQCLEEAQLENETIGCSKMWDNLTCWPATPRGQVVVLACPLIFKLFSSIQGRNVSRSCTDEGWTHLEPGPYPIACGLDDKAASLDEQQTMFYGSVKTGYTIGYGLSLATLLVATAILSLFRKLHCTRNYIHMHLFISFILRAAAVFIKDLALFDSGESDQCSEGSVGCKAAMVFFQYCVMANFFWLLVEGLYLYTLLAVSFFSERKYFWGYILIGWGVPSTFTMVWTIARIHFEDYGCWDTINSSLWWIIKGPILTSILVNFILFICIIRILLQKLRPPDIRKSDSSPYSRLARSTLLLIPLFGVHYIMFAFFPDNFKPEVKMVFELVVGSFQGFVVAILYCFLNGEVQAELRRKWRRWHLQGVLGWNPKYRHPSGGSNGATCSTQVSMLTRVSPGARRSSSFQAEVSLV

[5] = target: T5, human VPAC2 receptor (Homo sapiens, UniProt P41587); settings: high-throughput screen of 1.67 million-compound collection, cell-based cAMP assay; cited from earlier work
T5 sequence (P41587 24-438): T3 sequence (P41587 24-438)

**Q.** What does the source list for `O=C(N[C@H]1c2ccccc2C[C@H]1O)[C@H](Cc1ccccc1)C[C@H](O)CNS(=O)(=O)c1ccc([N+](=O)[O-])cc1` [(2R,4S)-2-benzyl-4-hydroxy-N-((1S,2R)-2-hydroxy-2,3-dihydro-1H-inden-1-yl)-5-(4-nitrophenylsulfonamido) pentanamide]?
**A.** antagonism of hPAC1 [1]: does not antagonize; activity on the mouse Vipr2 receptor [2]: completely lacks activity; block of VIPR2 receptor and downstream signaling [3]: blocks the VIPR2 receptor and the downstream signaling; antagonism of hVPAC1 [4]: does not antagonize; antagonist activity on human VIPR2 receptor [5]: selective human VIPR2 antagonist
